One assay deals with P. aeruginosa. Description: Antibacterial activity: Minimum Inhibitory Concentration. Format: cell-based, Pseudomonas aeruginosa ATCC 9027. The conditions noted are these: Pseudomonas aeruginosa, P. aeruginosa, 37° C., 24 hours, read-out: Minimum Inhibitory Concentration. As to the method: (§1) The antimicrobial activity was determined by inoculation of the test microorganism into suitable growth media containing solutions of the compounds at concentrations of 100, 50, 10, 5, 1.0, 0.5 and 0.1 μg/ml. The reference antibiotics used were Gentamicin for the antibacterial tests and Amphotericin B for the antimycotic and antifungal tests. After incubation the antimicrobial activity was recorded as the Minimal Inhibitory Concentration (M.I.C.), i.e., the lowest concentration preventing macroscopically visible growth, for each test compound against each organism.
(§2) An initial solution of each formula (I) compound to be tested in sterile distilled water was prepared at a concentration of 1000 μg/ml. With appropriate dilutions using sterile distilled water, additional solutions were prepared at concentrations of 500, 100, 50, 10, 5 and 1 μg/ml.
They were cultured and maintained on Tryptone Soy Agar (Oxoid CM 131), with the addition of 10% horse blood for the S. pyogenes.
To prepare the organisms as inocula for the test, slopes of this medium were streaked with the organisms and incubated at 37° C. for 24 hours. 4.5 Ml volumes of Brian-Heart Infusion Broth (Oxoid CM 225) were then inoculated with a platinum loop from the agar slope cultures and incubated for 24 hours at 37° C. The final inocula were then prepared by adding 0.1 ml aliquots of the Brain-Heart Infusion Broth cultures to 100 ml volumes of sterile physiological saline.
(a) For the test on each of the bacterial strains and each of the test and reference compounds, a series of 8 tubes containing 4.5 ml volumes of Brain-Heart Infusion Broth (Oxoid CM 225) were prepared. To 7 of these were added 0.5 ml volumes of the final solutions of the test compouns, giving final concentrations in the broths of 100, 50, 10, 5, 1.0, 0.5 and 0.1 μg/ml. To the eighth tube in each series was added 0.5 ml of the solvent used and diluted as for the preparation of the 1000 μg/ml solution of the compound. This tube was used as the growth control. The tubes were inoculated with 0.02 ml aliquots of the inocula prepared in accordance with "(a) Bacteria" above, and incubated at 37° C. for 24 hours. The tubes were then examined for evidence of bacterial growth as shown by turbidity of the medium and the lowest concentration of the test compound which prevented bacterial growth was recorded as the Minimal Inhibitory Concentration. This test procedure was carried out on two separate days.

In another assay the test system is A. fumigatus. Description: Antifungal activity: Minimum Inhibitory Concentration. The conditions noted are these: Aspergillus fumigatus, A. fumigatus, 27° C., one week, read-out: Minimum Inhibitory Concentration. Format: cell-based, Aspergillus fimigatus (A. fumigatus) NCPF 2140. The method, then: as §1, §2
(§3) The A. corymbifera, A. fumigatus, S. schenkii, T. rubrum, T. mentagrophytes, M. canis and P. verrucosa strains were all maintained on Sabouraud-Dextrose Agar (Oxoid CM 41) by incubating for 14 days at 27° C. To prepare the inocula 30 ml volumes of Sabouraud-Liquid medium (Oxoid CM 147) were inoculated from the agar cultures and incubated at 27° C. until heavy uniform growth resulted. The mycelial growth was then broken up by shaking with glass beads.
(§4) 1 Ml aliquots were removed from each of the cultures for the purpose of making viable counts and the cultures were then held at 4° C. The viable counts were made by preparing serial ten-fold dilutions of the cultures in sterile physiological saline and spreading on plates of Sabouraud-Dextrose Agar (Oxoid CM 41) which were then incubated at 27° C. for 14 days. When the viable counts had confirmed that each of the inocula contained approximately 10^6 colony forming units (C.F.U.) per ml the cultures were withdrawn from the refrigerator and used as the inocula for the tests.
(§5) (c) For the tests on each of the remaining seven strains and each of the test and reference compounds, a series of 8 tubes containing 4.5 ml volumes of Sabouraud-Liquid Medium (Oxoid CM 147) were prepared. To 7 of these were added 0.5 ml volumes of the final solutions of the test compounds, giving final concentrations in the broths of 100, 50, 10, 5, 1.0, 0.5 and 0.1 μg/ml. To the eighth tube in each series was added 0.5 ml of the solvent used and diluted as for the preparation of the 500 μg/ml solution of the compound. This tube was used as a growth control. The tubes were then inoculated with 0.1 ml aliquots of the inocula prepared as in "(b) Fungi" above. The tubes were then incubated at 27° C. with continuous shaking for a period of one week. The tubes were then examined for evidence of growth as shown by the presence of mycelial growth in the medium and the lowest concentration of the test compound which prevented fungal growth was recorded as the Minimal Inhibitory Concentration. This test procedure was carried out on two separate days.

For a further assay, the system named is T. rubrum. The description is as above. The class given is cell-based, Trichophyton rubrum NCPF 197. The following applies: Trichophyton rubrum, T. rubrum, 27° C., one week, read-out: Minimum Inhibitory Concentration. The method, then: as §1, §2, §3, §4, §5
A further assay has as its system T. mentagrophytes. The assay is described as above. Format: cell-based, Trichophyton mentagrophytes NCPF 410. The following applies: Trichophyton mentagrophytes, T. mentagrophytes, 27° C., one week, read-out: Minimum Inhibitory Concentration. As to the method: as §1, §2
T. mentagrophytes NCPF 410
as §3, §4, §5

The subject of another assay is M. canis. The assay is described as above. The class given is cell-based, Microsporum canis NCPF 351. The following applies: Microsporum canis, M. canis, 27° C., one week, read-out: Minimum Inhibitory Concentration. As to the method:
as §1, §2, §3, §4, §5

For the next assay, the system named is P. verrucosa. Described as above. The class given is cell-based, Phialophore verrucosa NCPF 1119. The conditions noted are these: Phialophora verrucosa, P. verrucosa, 27° C., one week, read-out: Minimum Inhibitory Concentration. As to the method: as §1, §2, §3, §4, §5

Here are results for four molecules from patent publication US4207326A, “Antimicrobial quaternary pyrazole derivatives” (Cilag-Chemie A.G., priority 1979, dated 1980).

Structures are written as SMILES. Like-named read-outs stand apart in the source and are kept apart here. Some results are limits rather than exact numbers.

`CCCCCCCCCCCCCCn1ccc[n+]1C` [Example 3-G, 2-methyl-1-tetradecyl-pyrazolium methosulfate]: the MIC was determined as 10 µg/mL with P. aeruginosa (Day 1); 10 µg/mL with P. aeruginosa (Day 2); 50 µg/mL in the assay with A. fumigatus (Day 1); 50 µg/mL in the assay on A. fumigatus (Day 2); 1 µg/mL in the assay on T. rubrum (Day 1); 5 µg/mL in the assay with T. rubrum (Day 2). Further, the MIC with T. mentagrophytes (Day 1) came out at 1 µg/mL; in the assay with T. mentagrophytes (Day 2), 5 µg/mL; in the assay with M. canis (Day 1), 10 µg/mL; in the assay with M. canis (Day 2), 5 µg/mL; in the assay on P. verrucosa (Day 1), 5 µg/mL; in the assay on P. verrucosa (Day 2), 5 µg/mL.
For `CCCCCCCCCCCCCCCCn1ccc[n+]1C` [Example 3-D, 1-hexadecyl-2-methyl-pyrazolium methosulfate], the MIC in the assay with P. aeruginosa (Day 1) amounted to 50 µg/mL; in the assay with P. aeruginosa (Day 2) it was 10 µg/mL; in the assay with A. fumigatus (Day 1), 50 µg/mL; with A. fumigatus (Day 2), 10 µg/mL; with T. rubrum (Day 1), 1 µg/mL; in the assay on T. rubrum (Day 2) it was 1 µg/mL. For the same molecule, the MIC in the assay with T. mentagrophytes (Day 1) is 1 µg/mL; in the assay on T. mentagrophytes (Day 2), 1 µg/mL; in the assay with M. canis (Day 1), 5 µg/mL; in the assay with M. canis (Day 2) it was 5 µg/mL; with P. verrucosa (Day 1) it was 5 µg/mL; with P. verrucosa (Day 2) it was 5 µg/mL.
Take `CCCCCCCCCCCCn1c(C)cc(C)[n+]1C` [Example 1, 1-dodecyl-2,3,5-trimethyl-pyrazolium methosulfate]: the MIC in the assay with P. aeruginosa (Day 1) was 50 µg/mL; in the assay with P. aeruginosa (Day 2), 10 µg/mL; in the assay with A. fumigatus (Day 1), 100 µg/mL; in the assay with A. fumigatus (Day 2) it was over 100 µg/mL; in the assay on T. rubrum (Day 1), 10 µg/mL; in the assay on T. rubrum (Day 2) it was 10 µg/mL. Also, the MIC was determined as 50 µg/mL with T. mentagrophytes (Day 1); 50 µg/mL in the assay with T. mentagrophytes (Day 2); 5 µg/mL with M. canis (Day 1); 10 µg/mL with M. canis (Day 2); 5 µg/mL with P. verrucosa (Day 1); 5 µg/mL with P. verrucosa (Day 2).
In the case of `CCCCCCCCCCCC[n+]1c(C)cc(C)n1Cc1ccc(Cl)cc1.[Br-]` [Example 6-E, 2-(p-chlorobenzyl)-3,5-dimethyl-1-dodecyl-pyrazolium bromide], the MIC stood at 5 µg/mL in the assay on P. aeruginosa (Day 1); 5 µg/mL in the assay with P. aeruginosa (Day 2); 10 µg/mL in the assay with A. fumigatus (Day 1); 5 µg/mL with A. fumigatus (Day 2); 5 µg/mL in the assay on T. rubrum (Day 1); 5 µg/mL in the assay with T. rubrum (Day 2). The MIC in the assay with T. mentagrophytes (Day 1) worked out at 5 µg/mL; in the assay with T. mentagrophytes (Day 2) it was 5 µg/mL; with M. canis (Day 1), 1 µg/mL; with M. canis (Day 2), 5 µg/mL; in the assay with P. verrucosa (Day 1) it was 5 µg/mL; in the assay with P. verrucosa (Day 2), 5 µg/mL.
